The results in this text go back to patent US9833497B2, “Human originated EGF domain proteins and use of the same” (CHENGDU SOURCEBIO LIMITED-LIABILITY COMPANY, priority 2013, dated 2017).

Holding throughout (format): cell-based
One assay has as its system Serratia marcescens. Kind of assay: MIC against Gram-negative bacteria: Serratia marcescens. To be noted: for MIC against S. marcescens / MIC S. marcescens: 5×10^5 CFU/mL. The procedure, abridged: (§1)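 Growth inhibition by human EGF domain proteins was scored in LB liquid culture seeded at 5×10^5 CFU/mL. Protein was applied as a two-fold dilution series in triplicate, with shaking incubation at 37° C; MIC is the lowest concentration giving no growth.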

Another assay concerns Pseudomonas aeruginosa. Description: MIC against Gram-negative bacteria: Pseudomonas aeruginosa. The settings on record: for MIC against P. aeruginosa / MIC P. aeruginosa: 5×10^5 CFU/mL. The procedure, abridged:
as §1

A further assay has as its system E. coli DH5α. Description: Antibacterial activity: MIC and growth curve against E. coli DH5α in 96-well plate. To be noted: minimal inhibitory concentration against E. coli DH5α; 96-well plate, 5×10^5 CFU/mL, 37° C., judged after 8 h. Put shortly: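 MIC taken as lowest protein level with no bacterial growth, tracked by A600 every 30 min during 37 °C, 175 rpm culture. Two-fold protein series 50-12.5 μg/mL final, triplicate wells, against 5×10^5 CFU/mL of LB-washed mid-log cells.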

A further assay concerns Moraxella catarrhalis. Description: MIC against Gram-negative bacteria: Moraxella catarrhalis. The settings on record: for MIC against M. catarrhalis / MIC M. catarrhalis: 5×10^5 CFU/mL. Put shortly:
as §1

A further assay deals with Proteus vulgaris. Kind of assay: MIC against Gram-negative bacteria: Proteus vulgaris. The settings on record: for MIC against P. vulgaris / MIC P. vulgaris: 5×10^5 CFU/mL. The procedure, abridged: as §1
A further assay concerns Aeromonas hydrophila. Description: MIC against Gram-negative bacteria: Aeromonas hydrophila. The settings on record: for MIC against A. hydrophila / MIC A. hydrophila: 5×10^5 CFU/mL. Put shortly:
as §1

The next assay deals with Proteus mirabilis. Description: MIC against Gram-negative bacteria: Proteus mirabilis. The settings on record: for MIC against P. mirabilis / MIC P. mirabilis: 5×10^5 CFU/mL. Put shortly: as §1
For another assay, the system named is E. coli BL21. Description: MIC against Gram-negative bacteria: E. coli BL21. To be noted: for MIC against E. coli BL21 / MIC E. coli BL21: 5×10^5 CFU/mL. The procedure, abridged: as §1
For a further assay, the system named is Enterobacter cloacae. Description: MIC against Gram-negative bacteria: Enterobacter cloacae. To be noted: for MIC against E. cloacae / MIC E. cloacae: 5×10^5 CFU/mL. The procedure, abridged: as §1
The test system of another assay is Klebsiella pneumonia. Description: MIC against Gram-negative bacteria: Klebsiella pneumonia. To be noted: for MIC against K. pneumonia / MIC K. pneumonia: 5×10^5 CFU/mL. The procedure, abridged:
as §1

The subject of the next assay is Citrobacter diversus. Kind of assay: MIC against Gram-negative bacteria: Citrobacter diversus. The settings on record: for MIC against C. diversus / MIC C. diversus: 5×10^5 CFU/mL. The procedure, abridged: as §1
[1] abbreviates: Serratia marcescens, 10 h cultivation at 37° C.
Where [2] appears, read: Pseudomonas aeruginosa, 10 h cultivation at 37° C.
The mark [3] stands for this setting: Moraxella catarrhalis, 10 h cultivation at 37° C.
Setting [4] is: Proteus vulgaris, 10 h cultivation at 37° C.
[5] abbreviates: Aeromonas hydrophila, 10 h cultivation at 37° C.
Setting [6] is: Proteus mirabilis, 10 h cultivation at 37° C.
Where [7] appears, read: E. coli BL21, 10 h cultivation at 37° C.
The mark [8] stands for this setting: Enterobacter cloacae, 10 h cultivation at 37° C.
The mark [9] stands for this setting: Klebsiella pneumonia, 10 h cultivation at 37° C.
The mark [10] stands for this setting: Citrobacter diversus, 10 h cultivation at 37° C.

In the case of “PRT1401 (VCHPRCIEHGTCKDGKCECREGWNGEHCT; listed as Homo sapiens)”, in the assay on Serratia marcescens (setting [1]), the “MIC against S. marcescens” value came out at 12.5 µg/mL. The “MIC against P. aeruginosa” value against Pseudomonas aeruginosa (setting [2]) was determined as 12.5 µg/mL. Also, the MIC (as a rule, the lowest concentration found to suppress growth) with E. coli DH5α was 12.5 µg/mL. The “MIC against M. catarrhalis” value with Moraxella catarrhalis (setting [3]) is 25 µg/mL. Moreover, the “MIC against P. vulgaris” value in the assay with Proteus vulgaris (setting [4]) was 25 µg/mL. Further, the “MIC against A. hydrophila” value in the assay with Aeromonas hydrophila (setting [5]) was determined as 25 µg/mL. Besides, the “MIC against P. mirabilis” value with Proteus mirabilis (setting [6]) was determined as 12.5 µg/mL. In addition, in the assay on E. coli BL21 (setting [7]), the “MIC against E. coli BL21” value was 25 µg/mL. Also, the “MIC against E. cloacae” value against Enterobacter cloacae (setting [8]) was 12.5 µg/mL. Moreover, the “MIC against K. pneumonia” value in the assay on Klebsiella pneumonia (setting [9]) worked out at 25 µg/mL. Further, the “MIC against C. diversus” value with Citrobacter diversus (setting [10]) came to 12.5 µg/mL.

With “PRT605 (CLCPDDPSSNQYFAHSCYQNLWSSDVICNCLQGYTGTQCGECSTGFYGNPRISGAPCQP; listed as Homo sapiens)”, the “MIC S. marcescens” value against Serratia marcescens (96-well plate, 37° C., 10 h) came to 50 µg/mL. Besides, in the assay on Pseudomonas aeruginosa (96-well plate, 37° C., 10 h), the “MIC P. aeruginosa” value came to 50 µg/mL. This substance also gave a minimum inhibitory concentration (MIC) against E. coli DH5α of 12.5 µg/mL. Besides, the “MIC M. catarrhalis” value against Moraxella catarrhalis (96-well plate, 37° C., 10 h) turned out to be 25 µg/mL. For the same substance, in the assay on Proteus vulgaris (96-well plate, 37° C., 10 h), the “MIC P. vulgaris” value was 25 µg/mL. Moreover, in the assay on Aeromonas hydrophila (96-well plate, 37° C., 10 h), the “MIC A. hydrophila” value was 25 µg/mL. Moreover, the “MIC P. mirabilis” value against Proteus mirabilis (96-well plate, 37° C., 10 h) is 12.5 µg/mL. Besides, in the assay on E. coli BL21 (96-well plate, 37° C., 10 h), the “MIC E. coli BL21” value was 25 µg/mL. For the same substance, the “MIC E. cloacae” value in the assay on Enterobacter cloacae (96-well plate, 37° C., 10 h) came out at 12.5 µg/mL. Also, the “MIC K. pneumonia” value in the assay on Klebsiella pneumonia (96-well plate, 37° C., 10 h) was found to be 25 µg/mL. For the same substance, in the assay on Citrobacter diversus (96-well plate, 37° C., 10 h), the “MIC C. diversus” value was 50 µg/mL.

Turning to “PRT449 (FLCRCHQGYELHRDGFSCSDIDE; listed as Homo sapiens)”, the “MIC against S. marcescens” value in the assay on Serratia marcescens (96-well plate, 37° C., 10 h) worked out at 50 µg/mL. For the same substance, the “MIC against P. aeruginosa” value in the assay on Pseudomonas aeruginosa (96-well plate, 37° C., 10 h) was 50 µg/mL. In the assay on E. coli DH5α, this substance had an MIC of 50 µg/mL. In addition, the “MIC against M. catarrhalis” value in the assay with Moraxella catarrhalis (96-well plate, 37° C., 10 h) came out at 25 µg/mL. The “MIC against P. vulgaris” value in the assay with Proteus vulgaris (96-well plate, 37° C., 10 h) is 12.5 µg/mL. Besides, the “MIC against A. hydrophila” value in the assay on Aeromonas hydrophila (96-well plate, 37° C., 10 h) turned out to be 25 µg/mL. Further, in the assay on Proteus mirabilis (96-well plate, 37° C., 10 h), the “MIC against P. mirabilis” value is 50 µg/mL. Besides, the “MIC against E. coli BL21” value in the assay with E. coli BL21 (96-well plate, 37° C., 10 h) turned out to be 12.5 µg/mL. Also, the “MIC against E. cloacae” value in the assay with Enterobacter cloacae (96-well plate, 37° C., 10 h) worked out at 50 µg/mL. The “MIC against K. pneumonia” value against Klebsiella pneumonia (96-well plate, 37° C., 10 h) is 12.5 µg/mL. Moreover, in the assay on Citrobacter diversus (96-well plate, 37° C., 10 h), the “MIC against C. diversus” value came to 12.5 µg/mL.

As for “PRT1346 (EVNECQSNPCLNNAVCEDQVGGFLCKCPPGFLGTRCG; listed as Homo sapiens)”, the “MIC against S. marcescens” value with Serratia marcescens (setting [1]) stood at 25 µg/mL. Further, the “MIC against P. aeruginosa” value with Pseudomonas aeruginosa (setting [2]) worked out at 50 µg/mL. The MIC against E. coli DH5α stood at 12.5 µg/mL. In addition, in the assay with Moraxella catarrhalis (setting [3]), the “MIC against M. catarrhalis” value came to 12.5 µg/mL. In addition, the “MIC against P. vulgaris” value with Proteus vulgaris (setting [4]) was 50 µg/mL. For the same substance, the “MIC against A. hydrophila” value in the assay on Aeromonas hydrophila (setting [5]) came to 50 µg/mL. For the same substance, the “MIC against P. mirabilis” value against Proteus mirabilis (setting [6]) worked out at 25 µg/mL. Besides, the “MIC against E. coli BL21” value with E. coli BL21 (setting [7]) turned out to be 25 µg/mL. Besides, in the assay with Enterobacter cloacae (setting [8]), the “MIC against E. cloacae” value turned out to be 12.5 µg/mL. Besides, in the assay with Klebsiella pneumonia (setting [9]), the “MIC against K. pneumonia” value was 25 µg/mL. Moreover, in the assay on Citrobacter diversus (setting [10]), the “MIC against C. diversus” value amounted to 25 µg/mL.

For “PRT1038 (FDMPCDETLCSADSFCVNDYTWGGSRCQCTLGKGGESCS; listed as Homo sapiens)”, the MIC is 25 µg/mL with Serratia marcescens (S. marcescens, 10 h cultivation at 37° C.); 50 µg/mL against Pseudomonas aeruginosa (P. aeruginosa, 10 h cultivation at 37° C.); 50 µg/mL in the assay on E. coli DH5α; 50 µg/mL with Moraxella catarrhalis (M. catarrhalis, 10 h cultivation at 37° C.); 12.5 µg/mL in the assay on Proteus vulgaris (P. vulgaris, 10 h cultivation at 37° C.); 12.5 µg/mL in the assay with Aeromonas hydrophila (A. hydrophila, 10 h cultivation at 37° C.). The minimum inhibitory concentration (MIC) against Proteus mirabilis (P. mirabilis, 10 h cultivation at 37° C.) is 50 µg/mL; in the assay on E. coli BL21 (setting [7]), 12.5 µg/mL; in the assay on Enterobacter cloacae (E. cloacae, 10 h cultivation at 37° C.) it was 50 µg/mL; against Klebsiella pneumonia (K. pneumonia, 10 h cultivation at 37° C.) it was 50 µg/mL; in the assay with Citrobacter diversus (C. diversus, 10 h cultivation at 37° C.), 25 µg/mL.

Take “PRT654 (DVNECMGEEHCAPHGECLNSHGSFFCLCAPGFVSAEGGTSCQ; listed as Homo sapiens)”: in the assay on Serratia marcescens (96-well plate, 37° C., 10 h), the “MIC S. marcescens” value worked out at 25 µg/mL. In the assay with Pseudomonas aeruginosa (96-well plate, 37° C., 10 h), the “MIC P. aeruginosa” value stood at 12.5 µg/mL. The MIC against E. coli DH5α was 12.5 µg/mL. Besides, the “MIC M. catarrhalis” value against Moraxella catarrhalis (96-well plate, 37° C., 10 h) turned out to be 50 µg/mL. In addition, the “MIC P. vulgaris” value against Proteus vulgaris (96-well plate, 37° C., 10 h) turned out to be 12.5 µg/mL. Also, the “MIC A. hydrophila” value in the assay with Aeromonas hydrophila (96-well plate, 37° C., 10 h) is 50 µg/mL. Also, in the assay on Proteus mirabilis (96-well plate, 37° C., 10 h), the “MIC P. mirabilis” value was found to be 25 µg/mL. The “MIC E. coli BL21” value with E. coli BL21 (96-well plate, 37° C., 10 h) stood at 50 µg/mL. The “MIC E. cloacae” value with Enterobacter cloacae (96-well plate, 37° C., 10 h) came out at 12.5 µg/mL. The “MIC K. pneumonia” value with Klebsiella pneumonia (96-well plate, 37° C., 10 h) is 50 µg/mL. The “MIC C. diversus” value with Citrobacter diversus (96-well plate, 37° C., 10 h) turned out to be 12.5 µg/mL.
